Consider 47 compounds from PubChem BioAssay (NCI).

“And” between values parts separate entries of the source, which are not always exact repeats. Identical values can stand only once.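 The compound was tested at five concentrations on cells cultured in 96-well plates, with a 48-hour exposure period. GI50 is the concentration that inhibits growth by half. TGI is the concentration that stops growth completely.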 Some results are limits rather than exact numbers.

In this test the test system is MDA-MB-468 breast. Briefly: NCI-60 cell line screen, 48 h.
On to `COc1cc(C(=O)/C=C/c2c(C(F)(F)F)nc3ccccn23)cc(OC)c1OC`, for which the GI50 was 2120 nM and the TGI is 4720 nM.
Take `Nc1nc2ccccc2c2c1S(=O)(=O)c1ccc(Cl)cc1C2=O`: the GI50 is 735 nM and the TGI was determined as 2150 nM.
Turning to `N#CCNC(=O)c1ccc(-c2ccnc(Nc3ccc(N4CCOCC4)cc3)n2)cc1`, the GI50 was 2690 nM and 2350 nM; the TGI was > 10000 nM and 11900 nM.
Take `C=C1C(=O)O[C@H]2[C@H]1CC/C(COC(=O)NCc1c[nH]c3ccc(F)cc13)=C\CC[C@@]1(C)O[C@@H]21`: the GI50 was 1090 nM and the TGI is 2910 nM.
For `CC(C)N(Cc1ccc(F)cc1)c1ccc(CO)c(Cl)c1` the same measures were 17 nM and 46.3 nM.
As for `CC1CCN(CCOc2ccc(CNc3ccc4nc(CCC5CCCCC5)[nH]c4c3)cc2)CC1`, the GI50 is 1550 nM and the TGI is 3250 nM.
For `C=CC[N+]1(CC)CCN=C1CCCCCCCCCCCCCCCCC` (stereo not drawn) the same measures were 135 nM and 538 nM.
Take `COc1ccc(/C=N\Nc2nc(SCC(C)C)nc(-c3ccc(OC)cc3)c2C#N)cc1`: the GI50 is 4360 nM and the TGI came to 28000 nM.
For `Fc1ccc2nc(-c3nc(-c4ccccc4)n4ccccc34)[nH]c2c1` the same measures were 1490 nM and 4020 nM.
For `COC(=O)c1cc([N+](=O)[O-])cc([N+](=O)[O-])c1Cl` the same measures were 1220 nM and 2570 nM.
For `Clc1ccc([I+]c2ccc(Cl)cc2Cl)c(Cl)c1` the same measures were 1330 nM and 2810 nM.
As for `Clc1nc(Cl)c2ncn(CCOCCn3cnc4c(Cl)nc(Cl)nc43)c2n1`, the GI50 was 179 nM and the TGI is 359 nM.
On to `C=CCN(CC=C)C(=O)[C@H](CC)[C@@H]1CC[C@@H](C)[C@@H]([C@H](C)[C@@H](O)[C@@H](C)C(=O)[C@H](CC)C2O[C@]3(C=C[C@@H](O)[C@]4(CC[C@@](C)([C@H]5CC[C@](O)(CC)[C@H](C)O5)O4)O3)[C@H](C)C[C@@H]2C)O1` (stereo partly drawn), for which the GI50 was 1530 nM and the TGI came out at 4840 nM.
For `COc1cc2c(cc1NC(=O)C(Cl)Cl)-c1ccc(NC(=O)C(Cl)Cl)cc1C2`, the GI50 is 280 nM and the TGI turned out to be 931 nM.
For `O=S(=O)(NCCCNc1nccc(-c2c(-c3ccc(F)cc3)nc3sccn23)n1)c1ccc(F)cc1` the same measures were 4550 nM and more than 100000 nM.
`COc1ccc(COc2cc3oc(=O)c4cc(C(C)O)ccc4c3cc2OC)cc1` (stereo not drawn): the GI50 is 9200 nM and the TGI is more than 100000 nM.
For the compound `C[C@@H](NC(=O)c1ccc(F)cc1)c1ccc2c(c1)CCN2C(=O)C1CCOCC1`, the GI50 is more than 100000 nM and the TGI is more than 100000 nM.
For the compound `COc1ccc(-c2c3c(N)c4c(nc3nc3c2c(C)nn3-c2ccccc2)CCCC4)cc1`, the GI50 is 2330 nM and the TGI turned out to be 7670 nM.
On to `O=S(=O)(NCCCNc1cc(-c2cn(-c3ccccc3)nc2-c2cccc(O)c2)ccn1)c1ccc(F)cc1`, for which the GI50 was 2550 nM and the TGI turned out to be 6730 nM.
For `C=CC(=O)N[C@@H](/C=C/C(=O)OCC)Cc1ccc(-c2cc(Cl)cc(Cl)c2)cc1` the same measures were 5170 nM and 48100 nM.
For `COc1ccc2c(c1)C(=O)c1c-2c(=O)n(CCCN(C)C)c2cc(OC)c(OC)cc12` the same measures were 1430 nM and 9920 nM.
On to `O=C(NCCCNc1cc(-c2cn(-c3ccccc3)nc2-c2cccc(O)c2)ccn1)Nc1cccc(C(F)(F)F)c1`, for which the GI50 is 1610 nM and the TGI was determined as 6150 nM.
For `Cn1c(C(=O)c2cccc3ccccc23)nc2ccccc21` the same measures were 5920 nM and more than 100000 nM.
For `c1ccc(C2CCCCC2)c(OCCCCCN2CCNCC2)c1` the same measures were 1770 nM and 4200 nM.
`COc1ccc(S(=O)(=O)N2CCNCC2)cc1OC`: the GI50 is more than 100000 nM and the TGI was more than 100000 nM.
With `O=c1[nH]c2ccccc2n1C1CCN(CCCC(c2ccc(F)cc2)c2ccc(F)cc2)CC1`, the GI50 was 1320 nM and 1500 nM; the TGI was 2830 nM and 4460 nM.
Take `CC1SC(c2ccc(Cl)cc2)N(CCc2cccs2)C1=O` (stereo not drawn): the GI50 was 1470 nM and the TGI was determined as 3750 nM.
As for `S=C(NCc1ccc2c(c1)OCO2)N1CCN(c2ncnc3c2oc2ccccc23)CC1`, the GI50 is 456 nM and the TGI is more than 100000 nM.
For `CC(=O)N(O)c1ccc(/C=C/c2ccccc2)cc1` the same measures were 68.6 nM and 932 nM.
Regarding `O=C(c1cc(Cc2n[nH]c(=O)c3ccccc23)ccc1F)N1CCN(C(=O)C2CC2)CC1`, the GI50 was 8290 nM and 13900 nM; the TGI is more than 100000 nM.
As for `C[C@H]1CN(C2COC2)CCN1c1ccc(Nc2cc(-c3ccnc(N4CCn5c(cc6c5CC(C)(C)C6)C4=O)c3CO)cn(C)c2=O)nc1`, the GI50 is 22900 nM and the TGI worked out at 89400 nM.
For `COCCOCCOCCOCCOC(=O)OC[n+]1ccc(NC(=NCCCCCCOc2ccc(Cl)cc2)NC#N)cc1` the same measures were 1420 nM and 9990 nM.
For `CCN(Cc1ccc(F)cc1)c1ccc(CO)c(C(F)(F)F)c1` the same measures were 165 nM and 499 nM.
For `N#Cc1cccc(Nc2ncc(-c3ccccc3)o2)c1` the same measures were 5290 nM and more than 25000 nM.
With `Cc1ccc(-n2c(-c3cc4c([nH]c5ccccc54)c(-c4cccc(O)c4)n3)n[nH]c2=S)cc1`, the GI50 was 280 nM and the TGI came out at 1180 nM.
Regarding `O=C1c2ccccc2C(=O)c2c1cc1c(c2[N+](=O)[O-])OCO1`, the GI50 is 1640 nM and the TGI is 4410 nM.
For `COc1ccc(-c2[nH]c3ccccc3c2/C=C(\C#N)S(=O)(=O)c2ccccc2)cc1`, the TGI is 1930 nM.
Turning to `N#Cc1c(NC(=O)c2ccccc2F)sc2c1CCCC2`, the GI50 was 5650 nM and the TGI was more than 25000 nM.
For `COC1=C(OC)C(=O)C(CCCCCCCCCCO)=C(C)C1=O`, the GI50 is 1660 nM and the TGI was 3760 nM.
Take `O=C1/C(=C/c2ccccc2[N+](=O)[O-])COc2ccc(O)cc21`: the GI50 is 1100 nM and the TGI came to 4560 nM.
For `NCc1ccc(-c2nc(-c3ccc(Cl)c(O)c3)c(-c3ccncc3)[nH]2)cc1` the same measures were more than 12200 nM and more than 25000 nM.
Take `Nc1nc(-c2ccc(Cl)cc2)nc2c1sc(=S)n2-c1ccccc1`: the GI50 was 4060 nM and the TGI came to 23200 nM.
For `COc1ccc(C2CC(c3ccc(N(C)C)cc3)=NN2c2ccc(S(N)(=O)=O)cc2)cc1` (stereo not drawn) the same measures were 3280 nM and more than 100000 nM.
For the compound `CC1(C)[C@H](O)[C@H](F)C[C@@]2(C)Oc3ccc(C(=O)Nc4ccc5c(c4)NC(=O)C54CCN(CCCCC#N)CC4)cc3C[C@H]12`, the GI50 was 65.4 nM and 128 nM; the TGI came to 10700 nM.
For the compound `COc1cc(-c2ncn(/C=C\c3nnco3)n2)cc(C(F)(F)F)c1`, the GI50 is 518 nM and the TGI stood at 3960 nM.
`N#C/C(=C\c1cc2ccc(N3CCC3)cc2oc1=O)C(=O)N(CC(=O)O)CC(=O)O`: the GI50 is more than 100000 nM and the TGI is more than 100000 nM.
For the compound `CCn1ccnc1C(=O)/C=C/c1ccc(CC(=O)Nc2ccc(F)cc2)cc1`, the GI50 is 1990 nM and the TGI came to 4940 nM.
